According to ChEMBL document CHEMBL1138412, “Chalcone based aryloxypropanolamines as potential antihyperglycemic agents” (2007):

What was measured:
[1] = species on record: Rattus norvegicus; assay: Antihyperglycemic activity in streptozotocin induced diabetic model of Sprague-Dawley albino rat assessed as reduction in blood glucose by AUC method; assay type: functional; set-up: scale not given: the % may be the effect or the level left
[2] = species on record: Rattus norvegicus; assay: Antihyperglycemic activity in sucrose loaded model of Sprague-Dawley albino rat assessed as reduction in blood glucose by AUC method; assay type: functional; set-up: scale not given: the % may be the effect or the level left

Compound	Activity [1]	Activity [2]
CN1CCN(CC(O)COc2cccc(/C=C/C(=O)c3ccccc3)c2)CC1 (stereo unspecified)	20.1%	20.4%
CC(C)CNCC(O)COc1cccc(/C=C/C(=O)c2ccccc2)c1 (stereo unspecified)	–	14.5%
O=C(/C=C/c1ccc(OCC(O)CN2CCN(c3ccccc3)CC2)cc1)c1ccccc1 (stereo unspecified)	3%	31.1%
CC(C)N(CC(O)COc1cccc(/C=C/C(=O)c2ccccc2)c1)C(C)C (stereo unspecified)	22.6%	26.7%
CC(C)CNCC(O)COc1ccc(/C=C/C(=O)c2ccccc2)cc1 (stereo unspecified)	–	6.5%
CC(C)N(CC(O)COc1ccc(/C=C/C(=O)c2ccccc2)cc1)C(C)C (stereo unspecified)	–	7.9%
CC(C)(C)NCC(O)COc1cccc(/C=C/C(=O)c2ccccc2)c1 (stereo unspecified)	10.6%	21.7%
CC(C)(C)NCC(O)COc1ccc(/C=C/C(=O)c2ccccc2)cc1 (stereo unspecified)	10.3%	29%
CN(C)C(=N)NC(=N)N [METFORMIN]	–	12.9%
O=C(/C=C/c1cccc(OCC(O)CN2CCCCC2)c1)c1ccccc1 (stereo unspecified)	9.4%	11.3%
CCN(CC)CCCNCC(O)COc1cccc(/C=C/C(=O)c2ccccc2)c1 (stereo unspecified)	8.3%	20.8%
O=C(/C=C/c1ccc(OCC(O)CN2CCCCC2)cc1)c1ccccc1 (stereo unspecified)	19.3%	22.3%
O=C(/C=C/c1cccc(OCC(O)CN2CCN(c3ccccc3)CC2)c1)c1ccccc1 (stereo unspecified)	10.4%	22.9%
COc1ccc(Cl)cc1C(=O)NCCc1ccc(S(=O)(=O)NC(=O)NC2CCCCC2)cc1 [GLYBURIDE]	29%	33.7%
O=C(/C=C/c1cccc(OCC(O)CN2CCN(c3ccccc3Cl)CC2)c1)c1ccccc1 (stereo unspecified)	8.3%	19%
